Here are results for ten molecules from US9375000B2, “Pesticidal arylpyrrolidines” (Bayer Intellectual Property GmbH, priority 2011, dated 2016).

Assay type in all cases: in vivo
Data set [1] concerns Two-Spotted Spider Mite (Tetranychus urticae). The data set is described as follows: Two-spotted spider mite (Tetranychus urticae) spray test on kidney bean. To be noted: after 7 days; for pest or weed control at 20 ppm: Tetranychus urticae, 168 h, read-out: acaricidal activity. The procedure, abridged: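 Kidney bean plants at the two-leaf stage carried 50-100 adult mites and were sprayed one day later with compound in DMF/polyoxyethylene alkyl phenyl ether diluted in water. Ammonium salt and penetration enhancer at 1000 ppm were added if needed. Acaricidal activity (% mites killed) was scored after 7 days in a greenhouse.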

The subject of data set [2] is Cucurbit Leaf Beetle (Aulacophora femoralis). In words: Cucurbit leaf beetle (Aulacophora femoralis) cucumber leaf dip test. To be noted: after 7 days; for pest or weed control at 20 ppm: Aulacophora, foliar, 168 h, read-out: insecticidal activity. The procedure, abridged: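 Cucumber leaves dipped in compound formulated with DMF and polyoxyethylene alkyl phenyl ether, diluted in water, with ammonium salt or ammonium salt plus penetration enhancer at 1000 ppm added if necessary; dried leaves placed on sterilized soil with five second-instar larvae. Kept at 25° C; larval mortality counted after 7 days.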

For data set [3], the system named is Larvae of Spodoptera litura. In words: Larvae of Spodoptera litura, method using artificial feeds. To be noted: artificial feed, after 7 days; for pest or weed control at 20 ppm: Spodoptera litura, 168 h, read-out: insecticidal activity (pesticidal ratio). The procedure, abridged: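 Compound formulated in dimethylformamide with polyoxyethylene alkyl phenyl ether emulsifier, water-diluted and poured onto artificial diet. Five 3rd-instar Spodoptera litura larvae per cup, held at 25° C and 50-60% humidity. Mortality after 7 days expressed as pesticidal ratio.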

For another data set, the system named is Thrips palmi. In words: Thrips palmi spray test (THRIPL). To be noted: active compound concentration 20 ppm; after 6 days. The procedure, abridged:
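Cucumber seedlings sprayed with compound formulated in DMF/polyoxyethylene alkyl phenyl ether and diluted in water, ammonium salt ± penetration enhancer at 1000 ppm added if needed. About 100 T. palmi eggs attached, plants held caged at 100% humidity, 23 °C. Percent activity scored from feeding damage after 6 days, 100 = no damage, 0 = as untreated.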

Data set [4] deals with Nymphs of the tick Amblyomma hebraeum. The data set is described as follows: Amblyomma hebraeum test (AMBYHE), nymph immersion. To be noted: application rate 100 ppm; immersion one minute; 42 days. On the procedure: Solvent: Dimethyl sulfoxide
To produce a suitable preparation of active compound, 10 mg of active compound are dissolved in 0.5 ml solvent, and the concentrate is diluted with water to the desired concentration. Nymphs of the tick Amblyomma hebraeum are placed in perforated plastic beakers and immersed in aqueous compound solution for one minute. Ticks are transferred to a filter paper in a petridish and incubated in a climate chamber for 42 days. After the specified period of time, mortality in % is determined. 100% means that all the ticks have been killed; 0% means that none of the ticks have been killed.

The test system of data set [5] is green peach aphids (Myzus persicae). In words: Myzus persicae spray test (MYZUPE). To be noted: active compound concentration 20 ppm; after 6 days. How it is done:
Unless not mentioned otherwise, the test solutions were prepared as follows:
Solvent: 3 parts by weight Dimethylformamide
Emulsifier: 1 part by weight Polyoxyethylene alkyl phenyl ether
In order to make an appropriate formulation of an active compound, 1 part by weight of the active compound is mixed with the above mentioned amount of solvent and emulsifier and the mixture is diluted with water to a prescribed concentration. Ammonium salt or ammonium salt and penetration enhancer in a dosage of 1000 ppm are added to the desired concentration if necessary.
1 day before treatment, green peach aphids (Myzus persicae) are inoculated onto the testing plants, about 50 heads per leaf, 100 for 1 pot. A paper label is placed on each pot. Solutions are sprayed directly onto both insects and plants. After drying, the pots are placed in the greenhouse at 20° C.-25° C. After 6 days mortality in % is determined. An insecticidal activity of 100% means that all aphids were killed, whereas an insecticidal activity of 0% means that no aphid was killed.

Another data set has as its system Ctenocephalides felis. In words: Test against Ctenocephalides felis (CTECFE), blood feeding. To be noted: for activity (mortality): application rate 100 ppm in cattle blood, after 2 days; for mortality at 100 ppm: Ctenocephalides felis, in Bos taurus, 48 h, read-out: activity (mortality). On the procedure:
(§1) Solvent: dimethyl sulfoxide
To produce a suitable preparation of active compound, 10 mg of active compound are dissolved in 0.5 ml solvent, and the concentrate is diluted with cattle blood to the desired concentration. Approximately 20 adult unfed (Ctenocepahlides felis) are placed in flea chambers. The blood chamber, sealed with parafilm on the bottom, are filled with cattle blood supplied with compound solution and placed on top of the flea chamber, so that the fleas are able to suck the blood. The blood chamber is heated to 37° C. whereas the flea chamber is kept at room temperature.
After 2 days mortality in % is determined. 100% means that all the fleas have been killed; 0% means that none of the fleas have been killed.

Data set [6] relates to Tobacco Cutworm (Spodoptera litura) Larvae. The data set is described as follows: Tobacco cutworm (Spodoptera litura) larvae, sweet potato leaf dip test. To be noted: dead larvae after 7 days. The procedure, abridged: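 Sweet potato leaves were dipped in DMF/emulsifier test solution at the set concentration and air-dried. Ten third-instar S. litura larvae were placed per dish at 25 °C, with fresh leaves added on days 2 and 4. Mortality was counted on day 7, given as % insecticidal activity averaged over two dishes.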

Data set [7] concerns Lucilia cuprina 1st instar larvae. In words: Test against Lucilia cuprina larvae. To be noted: 48 h, read-out: activity (larval mortality). How it is done: as §1
10 mg active compound are dissolve in 0.5 mL dimethyl sulfoxide. Serial dilutions are made to obtain the desired rates.
Approximately 20 Lucilia cuprina 1st instar larvae are transferred into a test tube containing 1 cm^3 of minced horse meat and 0.5 ml aqueous dilution of test compound. After 48 hrs percentage of larval mortality are recorded. 100% efficacy=all larvae are killed, […].

The subject of the next data set is Musca domestica. The data set is described as follows: Test against Musca domestica. To be noted: Musca domestica, 48 h, read-out: activity (mortality). How it is done: as §1
To produce a suitable preparation of active compound, 10 mg of active compound are dissolved in 0.5 ml solvent, and the concentrate is diluted with water to the desired concentration. Prior to the assay, a piece of kitchen sponge is soaked with a mixture of sugar and compound solution and placed into a container. 10 adults (Musca domestica) are placed into the container and closed with a perforated lid. After 2 days mortality in % is determined. 100% means that all the flies have been killed; 0% means that none of the flies have been killed.

In data set [8] the test system is adult engorged female Boophilus microplus ticks. In words: Test against Boophilus microplus (dip). To be noted: Rhipicephalus microplus, 168 h, read-out: activity (mortality). How it is done: as §1
To produce a suitable preparation of active compound, 10 mg of active compound are dissolved in 0.5 ml solvent, and the concentrate is diluted with water to the desired concentration. Eight to ten adult engorged female Boophilus microplus ticks are placed in perforated plastic beakers and immersed in aqueous compound solution for one minute. Ticks are transferred to a filter paper in a plastic tray. Egg deposition of fertile eggs is monitored after. After 7 days mortality in % is determined. 100% means that all the ticks have been killed; 0% means that none of the ticks have been killed.

Where [9] appears, read: active compound concentration 4 ppm.
Where [10] appears, read: active compound concentration 20 ppm.

The structures appear in SMILES notation.

Molecule `O=C(NCc1ccc(N2CCC(c3ccc(F)c(C(F)(F)F)c3)(C(F)(F)F)C2O)nc1C(F)(F)F)C1CC1` (mixture of isomers) [A3-236] displayed an acaricidal activity in [1] (setting [9]) of 100%. Further, the insecticidal activity in data set [2] (setting [9]) and in [2] (setting [10]) was 100% in each case. In addition, the “insecticidal activity (pesticidal ratio)” value in [3] (setting [9]) and in data set [3] (setting [10]) was 100% in each case. Further, the “insecticidal activity (by feeding damage degree)” value in the data set with Thrips palmi worked out at 98%. For the same molecule, in [4], the “activity (mortality)” value was found to be 100%.
`CCC(=O)NCc1ccc(N2CCC(c3cc(F)cc(C(F)(F)F)c3)(C(F)(F)F)C2O)nc1C(F)(F)F` (mixture of isomers) [A3-244]: the acaricidal activity in data set [1] (setting [9]) was 90%. For the same molecule, the insecticidal activity in data set [2] (setting [9]) and in data set [2] (setting [10]) was 100% in each case. The “insecticidal activity (pesticidal ratio)” value in data set [3] (setting [9]) and in [3] (setting [10]) was 100% in each case. The “activity (mortality)” value in data set [4] is 100%.
`O=C(NCc1ccc(N2CCC(c3cc(F)cc(C(F)(F)F)c3)(C(F)(F)F)C2O)nc1C(F)(F)F)C1CC1` (mixture of isomers) [A3-247]: the acaricidal activity in data set [1] (setting [9]) and in data set [1] (setting [10]) was 100% throughout. For the same molecule, the insecticidal activity in data set [2] (setting [9]) and in data set [2] (setting [10]) was 100% each time. In addition, the “insecticidal activity (pesticidal ratio)” value in [3] (setting [9]) and in data set [3] (setting [10]) was 100% in each case. The “insecticidal activity (mortality)” value in [5] amounted to 100%. Further, the “activity (mortality)” value is 100% in data set [4] and 95% with Ctenocephalides felis.
With `O=C(CC(F)(F)F)NCc1ccc(N2CCC(c3cc(Cl)cc(C(F)(F)F)c3)(C(F)(F)F)C2O)nc1C(F)(F)F` (racemic) [A3-271], the acaricidal activity in data set [1] (setting [9]) and in data set [1] (setting [10]) was 100% each time. In addition, the insecticidal activity in [2] (setting [9]) and in data set [2] (setting [10]) was 100% in each case. Further, the “insecticidal activity (pesticidal ratio)” value in [3] (setting [9]) and in data set [3] (setting [10]) was 100% in each case. In addition, the “insecticidal activity (by feeding damage degree)” value with Thrips palmi was 98%. The “activity (mortality)” value in data set [4] was determined as 100%.
For `O=C(NCc1ccc(N2CCC(c3cc(C(F)(F)F)cc(C(F)(F)F)c3)(C(F)(F)F)C2O)cc1Cl)C1CC1` (stereo not drawn) [A1-27, N-(4-{3-[3,5-bis(trifluoromethyl)phenyl]-2-hydroxy-3-(trifluoromethyl)pyrrolidin-1-yl}-2-chlorobenzyl)cyclopropanecarboxamide], the insecticidal activity in data set [6] (setting [10]) was found to be 100%. Further, the pest or weed control at 20 ppm in [1] (setting [10]), in [2] (setting [10]) and in [3] (setting [10]) was 100% each time. Moreover, the mortality at 100 ppm (in the data set on Ctenocephalides felis; in data set [7]; with Musca domestica) was 100% each time.
As for `CCC(=O)NCc1ccc(N2CCC(c3cc(Cl)cc(Cl)c3)(C(F)(F)F)C2O)cc1C(F)(F)F` (stereo not drawn) [A1-35, N-{4-[3-(3,5-dichlorophenyl)-2-hydroxy-3-(trifluoromethyl)pyrrolidin-1-yl]-2-(trifluoromethyl)benzyl}propanamide], the pest or weed control at 20 ppm in data set [1] (setting [10]), in [2] (setting [10]) and in data set [3] (setting [10]) was 100% throughout. Also, in data set [8], the mortality (as a rule, the share of the test organisms that died) at 20 ppm worked out at 100%. For the same molecule, the mortality at 100 ppm (with Ctenocephalides felis; in data set [7]) was 100% in each case.
Turning to `O=C(NCc1cnc(N2CCC(c3cc(Cl)c(F)c(Cl)c3)(C(F)(F)F)C2O)nc1C(F)(F)F)C1CC1` (stereo not drawn) [A4-104], the insecticidal activity in data set [6] (setting [9]) and in [2] (setting [10]) was 100% each time. The acaricidal activity in data set [1] (setting [9]) is on record as 100%. In addition, the “insecticidal activity (by feeding damage degree)” value with Thrips palmi is on record as 98%. In data set [4], the “activity (mortality)” value stood at 100%.
Turning to `O=C(NCc1cnc(N2CCC(c3cc(Cl)c(F)c(Cl)c3F)(C(F)(F)F)C2O)nc1C(F)(F)F)C1CC1` (stereo not drawn) [A4-115], the insecticidal activity in data set [6] (setting [9]) and in data set [2] (setting [10]) was 100% each time. The molecule also returned an acaricidal activity in data set [1] (setting [9]) of 100%. Moreover, the “insecticidal activity (mortality)” value in data set [5] is listed as 100%. The “insecticidal activity (by feeding damage degree)” value in the data set on Thrips palmi was 98%. The results for the “activity (mortality)” value (in [4]; in the data set with Ctenocephalides felis) were 100% and 90%, respectively.
Turning to `O=C(NCc1cnc(N2CCC(c3cc(Cl)c(F)c(Cl)c3F)(C(F)(F)F)C2O)cc1C(F)(F)F)C1CC1` (stereo not drawn) [A5-82], the insecticidal activity in data set [6] (setting [9]) and in data set [2] (setting [10]) was 100% each time. Also, the acaricidal activity in data set [1] (setting [9]) stood at 100%. Also, the “insecticidal activity (by feeding damage degree)” value in the data set with Thrips palmi was found to be 90%. Moreover, the “activity (mortality)” value in data set [4] is 100%; in the data set on Ctenocephalides felis, 95%.
`CCC(=O)NCc1ccc(N2CC(c3cc(Cl)c(Cl)c(Cl)c3)(C(F)(F)F)CC2=O)cc1C(F)(F)F` (stereo not drawn) [C1-46, N-{4-[2-oxo-4-(3,4,5-trichlorophenyl)-4-(trifluoromethyl)pyrrolidin-1-yl]-2-(trifluoromethyl)benzyl}propanamide] yielded an insecticidal activity in data set [6] (setting [10]) of 100%. For the same molecule, the pest or weed control at 20 ppm in data set [1] (setting [10]) and in data set [3] (setting [10]) was 100% each time. Moreover, the mortality at 100 ppm (in the data set with Ctenocephalides felis; in data set [7]) was 100% throughout.
